Reference: patent US20220002226A1, “Amorphous Form of Chelating Agents and Process for Preparing them” (Hovione Scientia Limited, priority 2018, published 2022)

Tests used:
[1] = cited from earlier work
[2] = Solubility test according to European Pharmacopoeia (Ph. Eur. 5.11): increasing amounts of water added to 100 mg of powder; type: physicochemical; conditions: 22° C.; for 100 mg dissolved in stated volume of water (YES/No): 100 mg powder
Experimental: Characters section in monographs. This was used in the tests below.
Solubility was assessed using the European Pharmacopeia method referred to above where increasing amounts of water are added to 100 mg of powder until its complete dissolution (or otherwise).
Characters section in monographs.

[3] = 0.1 ml water, Ph. Eur. class Very soluble
[4] = 1.0 ml water, Ph. Eur. class Freely soluble
[5] = 3.0 ml water, Ph. Eur. class Soluble
[6] = 10.0 ml water, Ph. Eur. class Sparingly soluble
[7] = 20.0 ml water, Ph. Eur. class Slightly soluble
[8] = 30.0 ml water, Ph. Eur. class Very slightly soluble
[9] = 40.0 ml water, Ph. Eur. class Insoluble
[10] = 50.0 ml water, Ph. Eur. class printed Insoluble (Tables 2, 6), Very slightly soluble (Table 4)
[11] = 60.0 ml water, Ph. Eur. class Insoluble
[12] = 70.0 ml water, Ph. Eur. class Insoluble
[13] = 80.0 ml water, Ph. Eur. class Insoluble

100 mg dissolved in stated volume of water (YES/No) [2, 3] | 100 mg dissolved in stated volume of water (YES/No) [2, 4] | 100 mg dissolved in stated volume of water (YES/No) [2, 5] | 100 mg dissolved in stated volume of water (YES/No) [2, 6] | 100 mg dissolved in stated volume of water (YES/No) [2, 7] | 100 mg dissolved in stated volume of water (YES/No) [2, 8] | 100 mg dissolved in stated volume of water (YES/No) [2, 9] | 100 mg dissolved in stated volume of water (YES/No) [2, 10] | 100 mg dissolved in stated volume of water (YES/No) [2, 11] | 100 mg dissolved in stated volume of water (YES/No) [2, 12] | 100 mg dissolved in stated volume of water (YES/No) [2, 13] | solubility compared with the corresponding crystalline form ([2]; Ph. Eur. solubility test, water) | SMILES | solubility in water (prior-art statement) [1]
 |  |  |  |  |  |  |  |  |  |  |  | O=C(O)CN(CCN(CC(=O)O)CC(=O)O)CCN(CC(=O)O)CC(=O)O [DTPA, diethylenetriaminepentaacetic acid] | soluble in water only at higher pH (around 8)
No | No | No | No | No | No | No | No | No | No | YES |  | O=C(O)CN(CCN(CC(=O)O)CC(=O)O)CCN(CC(=O)O)CC(=O)O [DTPA Crystalline pharma grade, diethylenetriaminepentaacetic acid] | 
No | No | No | No | No | YES |  |  |  |  |  | higher solubility | O=C(O)CN(CCN(CC(=O)O)CC(=O)O)CCN(CC(=O)O)CC(=O)O [DTPA Amorphous pharma grade, diethylenetriaminepentaacetic acid] | 
No | No | No | No | No | No | No | No | No | No | YES |  | O=C(O)CN(CCN(CC(=O)O)CC(=O)O)CCN(CC(=O)O)CC(=O)O [DTPA Crystalline Industrial grade, diethylenetriaminepentaacetic acid] | 
